In patent publication US20080269163A1, “Methods and Compositions for Protecting Cells from Ultrasound-Mediated Cytolysis” (priority 2004, published 2008):
“Also recorded” adds a separate entry of the source.

Tests used:
[1] = test system: HL-525 cells; assay: Sonolysis of HL-525 cells, % cytolysis; format: cell-based; conditions: 5 sec
Experimental: Conditions: 42 kHz, 50% power, 5 sec, 20° C., % cytolysis ±SD (n=6).
Conditions: 354 kHz, 15 W, 5 sec, 20° C., % cytolysis ±SD (n=6).
Conditions: 614 kHz, 20 W, 5 sec, 20° C., % cytolysis ±SD (n=6).
Conditions: 1057 kHz, 10 W, 5 sec, 20° C., % cytolysis ±SD (n=6).

[2] = test system: HL-60 cells; assay: Reproduction assay of HL-60 cells following sonolysis; format: cell-based; conditions: sonolysis, 5 seconds, 10 W; varying concentrations
Experimental: Cells were allowed to reproduce for 24 hours. Reproduction fraction ±SD (where n=6 to 8) is calculated by dividing the number of cells counted following 24 hours of reproduction by the number of cells counted at the start of incubation.
Control data points were run in triplicate with a standard deviation of less than 10%. Sonolysis points represent an average of six separate cell suspensions, with a standard deviation of less than 10%.
The reproduction ratio is the number of cells present one or two days post treatment divided by the number of cells present on the treatment day.
Reproduction Assay: for FIG. 5, a reproduction assay was conducted over a period of 10 days to determine the long term viability of cells following ultrasound treatment in the presence of either HGP or OGP at concentrations where 100% protection from cytolysis occurred. The long term viability of treated cell suspensions was compared to the long term viability of untreated control cell suspensions held under exactly the same conditions (FIG. 5). Immediately following sonolysis, a 100 μl aliquot of the 1 ml treated (or control) samples was used for Coulter counter analysis in order to confirm that 100% of the cells had survived the ultrasound treatment. Viability of the cells was determined by using a very small volume (approx. 20 μl) of suspension for trypan blue staining. The remaining ≈0.9 ml cell suspensions were diluted to 3 ml with fresh medium, centrifuged, washed with fresh medium, and finally re-suspended in fresh medium (2 ml). 100 μl of this new 2 ml of cells suspended in fresh medium was then used to determine the cell concentration. This cell concentration is defined as ‘the cell concentration at Day 0 after ultrasound treatment’ (Ci). Cell suspensions were then kept at 37° C. in a 5% CO2 incubator for a total of 10 days.
Over the 10 day period, cells had to be spun down occasionally and re-suspended in fresh medium to replenish the nutrients necessary for a healthy cell population. 100 μl aliquots of the original cell suspension were used to measure the cell concentration both before (Cfinal) and following (Cinitial) re-suspension in fresh medium. This procedure, although necessary, results in a slight underestimation in the expected number of cells on any given day, when compared to the original cell concentration, Ci. To account for this small, but significant underestimation, we calculated the actual number of cells that would have been observed had we not been periodically extracting small aliquots for the detection of cell numbers by the Coulter counter. This was done by calculating a ‘reproduction ratio’, determined by dividing Cfinal by Cinitial that was measured one or two days earlier and comparing this ratio to (Ci), to give a ‘real cell population’. It should be noted that this calculation is done simply as a matter of convenience and that the reproduction ability of the treated samples was compared to control samples that were treated in the same way over the day period, as shown in FIG. 5. Verification of this method is given by the fact that the cells of the control samples double approximately every day (FIG. 5), as expected for HL-60 cells under the conditions of incubation in the current study.

[3] = test system: HL-60 cells; assay: Ultrasound-induced cytolysis of HL-60 cells, Coulter counter analysis; format: cell-based; conditions: HL-60 cells
Experimental: Cells: HL-60 myeloid leukemia cells (American Type Culture Collection) were grown in a suspension of RPMI 1640 medium (GIBCO, Gaithersburg, Md.) containing 10% calf serum. The population of HL-60 cells doubled every 23±1 hr (hour ±SEM) when incubated at 37° C. in a CO2 (5%) containing atmosphere. Cells were harvested, re-suspended in fresh RPMI medium and kept at 25° C. until the start of the experiment (typically less than 1 hr). […] The fraction of intact cells before and after ultrasound was determined using a Coulter multisizer (model IIe) connected to a sampling stand (model IIa). The number of intact cells was determined by counting the total number of particles under the bell shaped curve (e.g., FIG. 1a) before and following sonolysis. The cytolysis percentage was determined by subtracting the number of intact cells following sonolysis from the number of intact cells before sonolysis. This value was divided by the number of intact cells before sonolysis and multiplied by 100 to obtain the cytolysis percentage value.
The temperature of the coupling water was 25° C.
We have confirmed the validity of this technique for studying the effects of sonolysis in our ultrasound system by the trypan blue exclusion assay. The mean size of HL-60 cells was determined from the Coulter counter results prior to sonolysis and was approximately 650 μm3 (FIG. 1a) which equates to a mean cell diameter of […].
42 kHz sonolysis was conducted in a similar way but using a Branson ultrasound bath (model number 1510). […] At 42 kHz, a transducer was used to decrease the power of the bath to 50% of its original value. The temperature of the coupling water at all frequencies was 25° C.
(§1) The percentage of cytolysis of HL-60 cells was determined by measurement of the cell size distribution using a Coulter multisizer. This method correlates well with percentage cytolysis measured using the Trypan blue exclusion assay immediately following sonolysis and is explained in detail elsewhere (Miyoshi, N. et al. 2003). […] This immediate ultrasound induced cytolysis (i.e., % cytolysis) is represented in FIGS. 2, 10-12 at a concentration of zero.
42 kHz sonolysis was conducted in a similar way but using a Branson ultrasound bath (model number […]). […] At 42 kHz, a transducer was used to decrease the power of the bath to 50% of its original value. The temperature of the coupling water at all frequencies was 25° C.
as §1, with “represented” for “represented in FIGS. 2, 10-12”

[4] = test system: HL-525 cells; assay: Mechanical fragility of HL-525 cells; format: cell-based; conditions: OGP 3 mM
Experimental: Conditions: 50% power, 30 min. shaking, 10 mL borosilicate glass beads, 10 mL cell suspension.

[5] = test system: HL-60 cells; assay: Exposure of HL-60 cells to glucopyranosides alone (no ultrasound); conditions: 15 minute exposure at highest concentrations used
Experimental: Cell experiments were completed within 5 to 10 minutes of adding the glucopyranosides to the cell suspensions, and each data point represents an average ±SEM, where n=5 to 8. […] For this reason, we only studied the effects of MGP, HGP, HepGP and OGP on the ultrasound induced cytolysis of HL-60 cells.

[6] = test system: various cells; conditions: approximately 7 mM to 30 mM OGP for up to 30 minutes; cited from earlier work
[7] = test system: HL-60 cells; assay: Mechanical fragility test (Burrell wrist action shaker, glass beads), HL-60 cells; format: cell-based
Experimental: 10 ml borosilicate glass beads in a 125 ml conical flask. 10 ml cell suspension in the presence and absence (control) of various glucopyranosides (HGP, HepGP, MGP, and OGP) in a cell culture medium containing 10% DPBS solution. Shaking was conducted over a period of 30 minutes. Each data point represents ±SD, where n=5.
Mechanical Fragility Test: the effect of glucopyranosides on the mechanical fragility of the cells was determined by inducing mechanical shear stress to a cell suspension. This involved placing 10 mL of HL-60 cells in suspension in 125 ml sized screw capped conical flasks containing 10 mL of borosilicate solid-glass beads (Sigma-Aldrich, mean particle diameter of 3 mm), similar to the methods described elsewhere (Carstensen, E. L. et al. 1993; Miller, M. W. et al. 2003). The samples were then shaken in a Burrell wrist action shaker (model number 75, Burrell Scientific, Pittsburgh, Pa.) at 50% power for a duration of 30 minutes. Using this method, up to eight sample solutions could be run at one time. […] In samples containing glucopyranosides, the surfactant was dissolved in 1 ml of DPBS and added to 9 ml of the cell suspension.

- effect on reproduction rate of the cells over 120 hours [5]: no detrimental effect
SMILES: CCCCCCCCO[C@@H]1O[C@H](CO)[C@@H](O)[C@H](O)[C@H]1O [OGP, octyl-β-D-Glucopyranoside]
- protective effect for HL-525 cells compared to HL-60 cells ([1]; 1 MHz (1057 kHz), 10 W): different protection effects; also recorded: smaller protective effect
- protective effect for HL-525 cells compared to HL-60 cells ([1]; 614 kHz, 20 W): much less pronounced; also recorded: smaller protective effect
- reproductive viability (reproduction fraction) over 24 hours after sonolysis [2]: continue to reproduce at the same rate as untreated control samples
- effect on ultrasound induced cytolysis (% cytolysis) ([3]; 1.057 MHz (1 MHz), 10 W, 5 s): fully protects
- concentration giving complete (approximately 100%) protection from ultrasound induced cytolysis ([3]; 1.057 MHz (1 MHz), 10 W, 5 s, air exposed): 2 mM
- effect on ultrasound induced cytolysis ([3]; 42 kHz, 50% power, 5 s): very small sonosensitization; also recorded: weak sonosensitizer
- effect on ultrasound induced cytolysis ([3]; 354 kHz, 15 W, 5 s): weak sonosensitizer
- cell population protected from cytolysis ([3]; 614 kHz): 50%
- change of protection from cytolysis as frequency is decreased ([3]; frequency decreased from 1 MHz to 42 kHz): less effective; also recorded: most affected by the frequency of sonolysis
- effect on mechanical destruction of cells [4]: significant effect on enhancing mechanical destruction
- cytolytic effects [6]: no cytolytic effects observed
- protection from mechanical induced cytolysis ([7]; 30 min shaking, 50% power, HGP 1-10 mM, HepGP 0.1-10 mM, MGP 10-30 mM, OGP 0.3-3 mM): none of the glucopyranosides tested
- effect on mechanical destruction of cells ([7]; OGP 3 mM): no effect
